Results on 18 compounds are retold here after ChEMBL document CHEMBL1129076 (J Med Chem, 1996).

For assay [1], the target named is T1, Vanilloid receptor (Rattus norvegicus, UniProt Q9ERZ8+Q9WUD2+O35433). Nature of the assay: Calcium +2 uptake into Dorsal Root Ganglion(DRG) neurons. It is filed as functional, tissue-based.
For assay [2], the target named is T1, Vanilloid receptor. Nature of the assay: Ability to stimulate uptake of Calcium into Dorsal Root Ganglion(DRG) neurons. The class given is functional, tissue-based.
In assay [3] the target is Transient receptor potential cation channel subfamily V member 1 (Rattus norvegicus) (UniProt O35433). Nature of the assay: Binding affinity against Vanilloid receptor in dorsal root ganglion (DRG) membranes relative to resinferatoxin (RTX); not tested. The class given is tissue-based.
Sequence of Transient receptor potential cation channel subfamily V member 1 (Rattus norvegicus) (O35433 whole entry): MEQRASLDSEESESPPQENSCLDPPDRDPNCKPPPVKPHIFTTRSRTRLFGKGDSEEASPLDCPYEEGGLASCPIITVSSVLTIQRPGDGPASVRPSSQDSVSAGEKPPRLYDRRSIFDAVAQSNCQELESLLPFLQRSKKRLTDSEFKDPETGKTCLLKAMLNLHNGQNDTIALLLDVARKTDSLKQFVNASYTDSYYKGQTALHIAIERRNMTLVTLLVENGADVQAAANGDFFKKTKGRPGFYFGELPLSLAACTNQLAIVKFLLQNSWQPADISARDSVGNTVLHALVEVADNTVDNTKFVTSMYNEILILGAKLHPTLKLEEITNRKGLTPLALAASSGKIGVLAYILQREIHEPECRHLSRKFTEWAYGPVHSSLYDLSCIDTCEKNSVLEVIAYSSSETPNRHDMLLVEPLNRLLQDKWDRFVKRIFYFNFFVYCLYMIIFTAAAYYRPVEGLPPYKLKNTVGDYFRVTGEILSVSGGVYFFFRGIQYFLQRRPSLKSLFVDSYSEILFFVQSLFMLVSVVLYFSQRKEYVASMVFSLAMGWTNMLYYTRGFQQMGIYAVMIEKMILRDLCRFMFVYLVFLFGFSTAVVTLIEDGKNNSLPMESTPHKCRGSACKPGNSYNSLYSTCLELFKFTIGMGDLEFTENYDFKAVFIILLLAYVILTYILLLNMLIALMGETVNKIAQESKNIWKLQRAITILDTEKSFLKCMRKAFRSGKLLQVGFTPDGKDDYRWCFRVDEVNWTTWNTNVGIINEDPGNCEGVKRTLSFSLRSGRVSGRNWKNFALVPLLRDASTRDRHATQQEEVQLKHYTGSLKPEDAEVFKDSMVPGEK
In assay [4] the target is Transient receptor potential cation channel subfamily V member 1 (Rattus norvegicus, UniProt O35433). Nature of the assay: Binding affinity against Vanilloid receptor in dorsal Root Ganglion (DRG) membranes using [3H]RTX binding assay. The class given is tissue-based.
Sequence of Transient receptor potential cation channel subfamily V member 1 (O35433 whole entry): as above
The target of assay [5] is Transient receptor potential cation channel subfamily V member 1 (Rattus norvegicus) (UniProt O35433). In words: Relative potency(RTX) against Dorsal Root Ganglion (DRG) membranes using RTX binding assay. The class given is functional, tissue-based.
Assay [6] shares this target. Nature of the assay: Relative potency against RTX binding to Dorsal Root Ganglion (DRG) membranes. It is filed as functional, tissue-based.

Where only a bound is given, the exact number is not on record here.

As to `COc1cc(CC(=O)OC/C=C/[C@H]2[C@H]3OC4(Cc5ccccc5)O[C@H]3CC[C@H]2O4)ccc1O`, the EC50 in assay [1] came out at 9.15 µM.
On to `C=C(C)C12C[C@@H](C)C34OC(Cc5ccccc5)(OC1[C@@H]3C=C(COC(=O)Cc1ccc(OCCN)c(OC)c1)C[C@]1(O)C(=O)C(C)=CC41)O2` (single isomer, unassigned), for which, in assay [2], the EC50 was found to be 0.01304 µM. In addition, in assay [3], the Relative affinity came to 0.028. The compound further yielded a Ki in assay [4] of 0.0043 µM. The same compound registered a Relative Potency in assay [5] of 0.123.
With `CCCCCCCCC(=O)NCc1ccc(O)c(OC)c1` [NONIVAMIDE], the EC50 in assay [1] was above 0.55 µM.
Turning to `C=C(C)[C@@]12C[C@@H](C)C34OC(Cc5ccccc5)(OC1[C@@H]3C=C(COC(=O)Cc1cccc(OC)c1)C[C@]1(O)C(=O)C(C)=C[C@@H]41)O2` (stereo partly drawn), the EC50 in assay [1] came to 0.00789 µM.
On to `C=C(C)[C@@]12C[C@@H](C)C34OC(C)(OC1[C@@H]3C=C(COC(=O)Cc1ccc(O)c(OC)c1)C[C@]1(O)C(=O)C(C)=C[C@@H]41)O2` (stereo partly drawn), for which the EC50 in assay [2] came to 0.0132 µM. In assay [3], this compound yielded a Relative affinity of 0.038. In addition, the Ki in assay [4] was 0.0032 µM. Further, the Relative Potency in assay [5] was found to be 0.122.
In the case of `C=C(C)[C@@]12C[C@@H](C)C34OC(c5ccccc5)(OC1[C@@H]3C=C(COC(=O)Cc1ccc(O)c(OC)c1)C[C@]1(O)C(=O)C(C)=C[C@@H]41)O2` (stereo partly drawn), the EC50 in assay [2] amounted to 0.0076 µM. Also, in assay [3], the Relative affinity was determined as 0.706. In addition, the Ki in assay [4] amounted to 0.00017 µM. The compound further came in with a Relative Potency in assay [5] of 0.21.
As to `C=C(C)[C@@]12C[C@@H](C)C34OC(Cc5ccccc5)(OC1[C@@H]3C=C(COC(C)=O)C[C@]1(O)C(=O)C(C)=C[C@@H]41)O2` (stereo partly drawn), the EC50 in assay [1] is above 2 µM.
On the same count and under the same terms, the same measure for `CCCCCCCCC(=O)NCc1ccc(OC)c(OC)c1`: above 6.41 µM; for `CCCCCCCCC(=O)NCc1ccc(OCCN)c(OC)c1`: 0.41 µM.
`C=C(C)[C@]12C[C@@H](C)[C@@]34O[C@](Cc5ccccc5)(O[C@@H]1[C@@H]3C=C(COC(=O)Cc1ccc(O)c(OC)c1)C[C@]1(O)C(=O)C(C)=C[C@@H]41)O2` [RESINIFERATOXIN]: in assay [2], the EC50 was 0.0016 µM. The Relative affinity in assay [3] came to 1. The Ki in assay [4] turned out to be 0.00012 µM. Further, in assay [5], the Relative Potency turned out to be 1.
In the case of `C=C(C)[C@@]12C[C@@H](C)C34OC(Cc5ccccc5)(OC1[C@@H]3C=C(CNC(=O)Cc1ccc(O)c(OC)c1)C[C@]1(O)C(=O)C(C)=C[C@@H]41)O2` (stereo partly drawn), the EC50 in assay [2] worked out at 0.122 µM. The Relative affinity in assay [3] came out at 0.011. The compound further showed a Ki in assay [4] of 0.0106 µM. In assay [5], this compound yielded a Relative Potency of 0.013.
`C=C(C)[C@@]12C[C@@H](C)C34OC(Cc5ccccc5)(OC1[C@@H]3C=C(COC(=O)Cc1ccc(OC)c(N=[N+]=[N-])c1)C[C@]1(O)C(=O)C(C)=C[C@@H]41)O2` (stereo partly drawn): the half-maximal effective concentration (EC50) in assay [1] is 0.01064 µM.
Consider `C=C(C)C12C[C@@H](C)C34OC(Cc5ccccc5)(OC1[C@@H]3C=C(COC(=O)Cc1ccccc1)C[C@]1(O)C(=O)C(C)=CC41)O2` (single isomer, unassigned), for which the EC50 in assay [2] and in assay [1] was 0.01022 µM throughout. This compound yielded a Relative affinity in assay [3] of 0.015. Besides, the affinity in assay [4], expressed as Ki, was 0.0083 µM. Further, the Relative Potency in assay [6] worked out at 0.157.
For the compound `COc1cc(CC(=O)OCC2=C[C@H]3[C@@H]4C(C)(C)[C@]4(OC(C)=O)C(OC(C)=O)[C@@H](C)C3(O)[C@@H]3C=C(C)C(=O)[C@@]3(OC)C2)ccc1O` (stereo partly drawn), the EC50 in assay [1] was found to be 8.51 µM.
On to `C=C(C)C12C[C@@H](C)C34OC(Cc5ccccc5)(OC1[C@@H]3C=C(CO)C[C@]1(O)C(=O)C(C)=CC41)O2` (single isomer, unassigned), for which, in assay [2], the EC50 is above 20 µM. Besides, in assay [3], the Relative affinity was below 1e-05. The compound also had a Ki in assay [4] above 10 µM. In assay [5], this compound yielded a Relative Potency below 8e-05.
As to `CCCCCCCCC(=O)NCc1cccc(OC)c1`, the EC50 in assay [1] was above 100 µM.
Take `C=C(C)C12C[C@@H](C)C34OC(Cc5ccccc5)(OC1[C@@H]3C=C(COC(=O)Cc1ccc(OC)c(OC)c1)C[C@]1(O)C(=O)C(C)=CC41)O2` (single isomer, unassigned): in assay [2], the EC50 was found to be 0.01489 µM. Further, the Relative affinity in assay [3] worked out at 0.12. In assay [4], this compound had a Ki of 0.001 µM. In assay [5], this compound registered a Relative Potency of 0.107.
Turning to `C=C(C)C12C[C@@H](C)C34OC(Cc5ccccc5)(OC1[C@@H]3C=C(COC(=O)Cc1ccc(O)c(OC)c1)C[C@]1(OC)C(=O)C(C)=C[C@@H]41)O2` (single isomer, unassigned), the EC50 in assay [1] is 0.0053 µM.

A word on the EC50: it is the concentration that produces a half-maximal response. As usually defined, the Ki is the dissociation constant of the complex between target and ligand, obtained from inhibition or displacement. A low value points to higher affinity.
